Test results published in US20220117919A1, “ENHANCED BIOAVAILABILITY OF N-(2,6-BIS(1-METHYLETHYL)PHENYL)-N'-((1-(4-(DIMETHYLAMINO)-PHENYL)CYCLOPENTYL)METHYL)UREA HYDROCHLORIDE” (The Regents of the University of Michigan, priority 2015, published 2022).
Values joined by “and” are separate entries in the source; they are usually repeats but may differ in a detail not shown here. Equal values may be shown once. Where a name gives a salt, the structure may show the parent alone.

Assay: Food and acidic beverage effect on bioavailability of ATR-101 tablets, 3-way crossover plasma PK study
Type: in vivo, human
Settings: single oral 500 mg; for kel: in h-1
Procedure: To evaluate the effects of food and of an acidic beverage on bioavailability of ATR-101 tablets prepared according to Example 2 (see Table 2), an open-label, randomized, 3-period, 3-way crossover, 3-sequence study was carried out with fourteen healthy, adult, non-tobacco using male and female (non-childbearing potential only) human subjects.
Three different treatments A, B, and C were administered as follows:
Treatment A: 500 mg ATR-101 (1×500 mg tablet) administered with water at Hour 0 on Day 1 following an overnight fast.
Treatment B: 500 mg ATR-101 (1×500 mg tablet) administered with water at Hour 0, 30 minutes after the start of a high-fat breakfast, on Day 1.
Treatment C: 500 mg ATR-101 (1×500 mg tablet) administered with Coca-Cola® Classic at Hour 0 on Day 1 following an overnight fast.
On Day 1 of Period 1, subjects were randomized to one of 3 treatment sequences: ABC, BCA, or CBA. For Treatments A and B, ATR-101 was administered orally with approximately 240 mL of water. For Treatment C, ATR-101 was administered orally with approximately 240 mL of Coca-Cola® Classic. Water (except water provided with dosing for Treatments A and B) was restricted 1 hour prior to and 1 hour after each study drug administration, but was allowed ad libitum at all other times. Other fluids were given as part of the standard meals (including the breakfast administered prior to study drug dosing for Treatment B) and/or snacks, but were restricted at all other times (except for the Coca-Cola® Classic beverage provided with dosing in Treatment C) throughout the confinement period.
For Treatments A and C, subjects fasted overnight for at least 10 hours prior to study drug administration and continued the fast for at least 4 hours post-dose.
For Treatment B, subjects were required to fast overnight for at least 10 hours until 30 minutes prior to study drug administration, when they were given breakfast which was entirely consumed within 30 minutes. A representative breakfast includes 2 slices of buttered toast, 2 fried eggs, 2 strips of bacon, 4 oz of hash brown potatoes, and 240 mL of whole milk.
On Day 1 of each period, a standard lunch and dinner was provided at approximately 4 and 9 hours post-dose, respectively, and a snack was also offered at approximately 12 hours post-dose. On other days when confined in the CRU, standard meals and/or snacks were provided at appropriate times. When confined, subjects were required to fast from all food and drink except water between meals and snacks served at the clinical research unit.
Each meal and/or snack served at the clinical research unit was standardized and was similar in caloric content and composition (except for the meal served as part of Treatment B) and was taken at approximately the same time in each period.
For all subjects, blood samples for the determination of ATR-101 plasma concentration were collected at pre-dose and 0.5, 1, 1.5, 2, 2.5, 3, 3.5, 4, 5, 6, 8, 12, 16, 24, 36, and 48 hours post-dose. PK parameters for plasma ATR-101 were calculated as follows: • AUC0-t: The area under the plasma concentration-time curve, from time 0 to the last measurable non-zero concentration, was calculated by the linear trapezoidal method. • AUC0-inf: The area under the plasma concentration-time curve from time 0 extrapolated to infinity. AUC0-inf was calculated as the sum of AUC0-t plus the ratio of the last measurable plasma concentration to the elimination rate constant. • AUC%extrap: Percent of AUC0-inf extrapolated, represented as
[formula] • Cmax: Maximum observed concentration. • tmax: Time to reach Cmax. If the maximum value occurred at more than one time point, tmax was defined as the first time point with this value. • ke1: Apparent first-order terminal elimination rate constant calculated from a semi-log plot of the plasma concentration versus time curve. […]

[1] = Treatment A (fasting with water), Maximum
[2] = Treatment A (fasting with water), Mean
[3] = Treatment A (fasting with water), Median
[4] = Treatment A (fasting with water), Minimum
[5] = Treatment A (fasting with water), individual subject, hydrochloride
[6] = Treatment B (fed with water), Maximum
[7] = Treatment B (fed with water), Mean
[8] = Treatment B (fed with water), Median
[9] = Treatment B (fed with water), Minimum
[10] = Treatment B (fed with water, high-fat breakfast), individual subject, hydrochloride
[11] = Treatment C (fasting with acidic beverage), Maximum
[12] = Treatment C (fasting with acidic beverage), Mean
[13] = Treatment C (fasting with acidic beverage), Median
[14] = Treatment C (fasting with acidic beverage), Minimum

AUC0-inf [1]: 5050 ng·h/mL | AUC0-t [1]: 4860 ng·h/mL | AUC% extrap [1]: 12.7% | Cmax [1]: 933 ng/mL | t1/2 [1]: 22.7 h | tmax [1]: 12.0 h | kel [1]: 0.0612 | AUC% extrap [2]: 8.64% | kel [2]: 0.0406 | AUC% extrap [3]: 9.43% | kel [3]: 0.0380 | AUC0-inf [4]: 2430 ng·h/mL | AUC0-t [4]: 840 ng·h/mL | AUC% extrap [4]: 3.72% | Cmax [4]: 26.1 ng/mL | t1/2 [4]: 11.3 h | tmax [4]: 1.50 h | kel [4]: 0.0305 | AUC0-inf [6]: 14000 ng·h/mL | AUC0-t [6]: 13200 ng·h/mL | AUC% extrap [6]: 17.9% | Cmax [6]: 2060 ng/mL | t1/2 [6]: 30.7 h | tmax [6]: 5.00 h | kel [6]: 0.0603 | AUC% extrap [7]: 8.00% | kel [7]: 0.0364 | AUC% extrap [8]: 7.27% | kel [8]: 0.0366 | AUC0-inf [9]: 3790 ng·h/mL | AUC0-t [9]: 3520 ng·h/mL | AUC% extrap [9]: 2.07% | Cmax [9]: 719 ng/mL | t1/2 [9]: 11.5 h | tmax [9]: 1.50 h | kel [9]: 0.0226 | AUC0-inf [11]: 6970 ng·h/mL | AUC0-t [11]: 6430 ng·h/mL | AUC% extrap [11]: 21.5% | Cmax [11]: 1550 ng/mL | t1/2 [11]: 27.9 h | tmax [11]: 6.00 h | kel [11]: 0.0501 | AUC% extrap [12]: 10.6% | kel [12]: 0.0377 | AUC% extrap [13]: 8.95% | kel [13]: 0.0376 | AUC0-inf [14]: 728 ng·h/mL | AUC0-t [14]: 572 ng·h/mL | AUC% extrap [14]: 3.84% | Cmax [14]: 19.8 ng/mL | t1/2 [14]: 13.8 h
Structure (SMILES): CC(C)c1cccc(C(C)C)c1NC(=O)NCC1(c2ccc(N(C)C)cc2)CCCC1 [ATR-101, N-(2,6-bis(1-methylethyl)phenyl)-N′-((1-(4-(dimethylamino)-phenyl)cyclopentyl)methyl)urea hydrochloride]
AUC0-inf [5]: 2740 and 4290 and 2630 and 2430 and 5050 and 2560 and 4700 and 4940 and 4370 | AUC0-t [5]: 2450 and 3180 and 3810 and 2490 and 840 and 2200 and 4860 and 2330 and 1520 and 4100 and 4400 and 3880 | AUC% extrap [5]: 10.6% and 6.68% and 11.2% (2×) and 5.32% and 9.43% and 3.72% and 8.82% and 12.7% and 4.61% and 10.8% | Cmax [5]: 509 ng/mL and 620 ng/mL and 807 ng/mL and 26.1 ng/mL and 612 ng/mL and 539 ng/mL and 306 ng/mL and 526 ng/mL and 486 ng/mL and 933 ng/mL and 842 ng/mL | tmax [5]: 2.5 h and 1.50 h and 12.0 h and 1.5 h and 3.00 h | kel [5]: 0.0378 and 0.0414 and 0.0347 and 0.0456 and 0.0380 and 0.0612 and 0.0404 and 0.0317 and 0.0531 and 0.0305 and 0.0318 | AUC0-inf [10]: 3790 and 6400 and 14000 and 5390 and 4540 and 7640 and 9000 and 7660 and 7670 and 5830 and 5820 and 4900 and 9990 and 7210 | AUC0-t [10]: 3520 and 5930 and 13200 and 5280 and 4120 and 6890 and 8430 and 6810 and 6290 and 5420 and 5310 and 4740 and 9300 and 6570 | AUC% extrap [10]: 7.07% and 7.35% and 5.87% and 2.07% and 9.33% and 9.87% and 6.38% and 1.1% and 17.9% and 7.19% and 8.76% and 3.35% and 6.89% and 8.80% | Cmax [10]: 1040 ng/mL and 1620 ng/mL and 2060 ng/mL and 1120 ng/mL and 848 ng/mL and 1340 ng/mL and 2000 ng/mL and 1210 ng/mL and 931 ng/mL and 719 ng/mL and 759 ng/mL and 1690 ng/mL and 993 ng/mL | t1/2 [10]: 19.3 h and 20.9 h and 16.9 h and 11.5 h and 25.1 h and 27.8 h and 18.0 h and 24.9 h and 30.7 h and 17.4 h and 23.9 h and 13.2 h and 17.7 h and 18.6 h | tmax [10]: 1.50 h and 2.50 h and 3.00 h and 5.00 h and 4.01 h and 3.57 h | kel [10]: 0.0359 and 0.0332 and 0.0410 and 0.0603 and 0.0276 and 0.0249 and 0.0385 and 0.0278 and 0.0226 and 0.0398 and 0.0290 and 0.0526 and 0.0392 and 0.0374
